Experimental data reported in patent US20260297080A1, “BICYCLIC COMPOUNDS AS CDK INHIBITORS” (BeOne Medicines I GmbH, priority 2022, published 2026).

Columns and labels:
CDK2/Cyclin E1 = CDK2/Cyclin E1 (Homo sapiens, UniProt P24941); assay: CDK2/Cyclin E1 Biochemical Assay (TR-FRET), 0.060 mM ATP; settings: 0.15 μM Rb (Ser780)-biotin substrate, pH7.0, 60 min preincubation, 120 min reaction, room temperature
Procedure, shortened: (§1)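 Percent inhibition was derived from the 665 nm/620 nm TR-FRET ratio after a 120-minute room-temperature reaction on 0.15 μM Rb (Ser780)-biotin, preceded by 60-minute enzyme–compound preincubation. IC50 came from four-parameter logistic fitting.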

CDK1/Cyclin B1 = CDK1/Cyclin B1 (Homo sapiens, UniProt P06493); assay: CDK1/Cyclin B1 Biochemical Assay (TR-FRET), 0.015 mM ATP; settings: 0.15 μM Rb (Ser780)-biotin substrate, pH7.0, 60 min preincubation, 120 min reaction, room temperature
Procedure, shortened: as §1

Chain of CDK1/Cyclin B1 (P06493 whole entry): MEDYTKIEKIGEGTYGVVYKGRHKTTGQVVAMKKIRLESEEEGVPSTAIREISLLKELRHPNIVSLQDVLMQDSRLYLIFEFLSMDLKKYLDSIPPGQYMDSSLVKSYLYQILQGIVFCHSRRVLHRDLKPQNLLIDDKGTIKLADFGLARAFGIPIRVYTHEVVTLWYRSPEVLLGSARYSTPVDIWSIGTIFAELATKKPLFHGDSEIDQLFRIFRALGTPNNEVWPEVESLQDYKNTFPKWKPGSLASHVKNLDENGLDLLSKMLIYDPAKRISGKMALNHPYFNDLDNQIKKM
Chain of CDK1/Cyclin B1 (P14635 whole entry partner): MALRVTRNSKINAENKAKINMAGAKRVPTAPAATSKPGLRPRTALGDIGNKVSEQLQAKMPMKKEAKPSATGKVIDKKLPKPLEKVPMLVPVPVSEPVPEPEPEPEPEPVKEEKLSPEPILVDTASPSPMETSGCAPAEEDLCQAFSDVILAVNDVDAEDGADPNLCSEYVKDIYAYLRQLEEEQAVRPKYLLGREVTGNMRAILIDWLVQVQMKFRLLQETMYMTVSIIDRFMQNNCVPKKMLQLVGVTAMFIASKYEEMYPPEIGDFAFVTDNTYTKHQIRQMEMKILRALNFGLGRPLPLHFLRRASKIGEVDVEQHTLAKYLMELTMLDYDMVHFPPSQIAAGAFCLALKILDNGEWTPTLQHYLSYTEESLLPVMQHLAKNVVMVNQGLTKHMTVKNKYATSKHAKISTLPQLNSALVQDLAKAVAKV

IC50 (CDK2/Cyclin E1)	IC50 (CDK1/Cyclin B1)	Structure (SMILES)
5.5 nM	84 nM	CC(C)NC(=O)O[C@H]1CC[C@@H](c2cc(Nc3ccc4c(c3)C3(CCC3)S(=O)(=O)N4)n[nH]2)C1 (relative stereo) [Example 199, cis-3-(3-((2,2-dioxido-1H-spiro[benzo[c]isothiazole-3,1′-cyclobutan]-5-yl)amino)-1H-pyrazol-5-yl)cyclopentyl isopropylcarbamate]
3.9 nM	191 nM	CC(C)NC(=O)O[C@H]1CC[C@@H](c2cc(Nc3ccc4c(c3)C(C)S(=O)(=O)N4)n[nH]2)C1 (single isomer, unassigned) [Example 384b, cis-3-(3-((3-methyl-2,2-dioxido-1,3-dihydrobenzo[c]isothiazol-5-yl)amino)-1H-pyrazol-5-yl)cyclopentyl isopropylcarbamate]
1.5 nM	13 nM	CN1c2ccc(Nc3cc([C@@H]4CC[C@H](OC(=O)NC56CC(C5)C6)C4)[nH]n3)cc2CS1(=O)=O (relative stereo) [Example 231, cis-3-(3-((1-methyl-2,2-dioxido-1,3-dihydrobenzo[c]isothiazol-5-yl)amino)-1H-pyrazol-5-yl)cyclopentyl bicyclo[1.1.1]pentan-1-ylcarbamate]
3.5 nM	60 nM	CC(C)NC(=O)O[C@H]1CC[C@@H](c2cc(Nc3ccc4c(c3)CS(=O)(=O)N4CCN3CCOCC3)n[nH]2)C1 (relative stereo) [Example 212, cis-3-(3-((1-(2-morpholinoethyl)-2,2-dioxido-1,3-dihydrobenzo[c]isothiazol-5-yl)amino)-1H-pyrazol-5-yl)cyclopentyl isopropylcarbamate]
44 nM	941 nM	Cc1cc(Nc2cc([C@@H]3CC[C@H](OC(=O)NC(C)C)C3)[nH]n2)cc2c1N(C)S(=O)(=O)C2 (relative stereo) [Example 245, cis-3-(3-((1,7-dimethyl-2,2-dioxido-1,3-dihydrobenzo[c]isothiazol-5-yl)amino)-1H-pyrazol-5-yl)cyclopentyl isopropylcarbamate]
36 nM	2020 nM	CC(C)NC(=O)O[C@H]1CC[C@@H](c2cc(Nc3ccc4c(c3F)CN(CC3CCC3)S4(=O)=O)n[nH]2)C1 (relative stereo) [Example 96, cis-3-(3-((2-(cyclobutylmethyl)-4-fluoro-1,1-dioxido-2,3-dihydrobenzo[d]isothiazol-5-yl)amino)-1H-pyrazol-5-yl)cyclopentyl isopropylcarbamate]
279 nM	5580 nM	COc1cc2c(cc1Nc1cc([C@@H]3CC[C@H](OC(=O)NC(C)C)C3)[nH]n1)S(=O)(=O)NC2 (relative stereo) [Example 182, cis-3-(3-((5-methoxy-1,1-dioxido-2,3-dihydrobenzo[d]isothiazol-6-yl)amino)-1H-pyrazol-5-yl)cyclopentyl isopropylcarbamate]
2.9 nM	95 nM	CC(C)NC(=O)O[C@H]1CC[C@@H](c2cc(Nc3ccc4c(c3)C(C)NS4(=O)=O)n[nH]2)C1 (single isomer, unassigned) [Example 321a, cis-3-(3-((3-methyl-1,1-dioxido-2,3-dihydrobenzo[d]isothiazol-5-yl)amino)-1H-pyrazol-5-yl)cyclopentyl isopropylcarbamate]
1.4 nM	152 nM	CN1c2ccc(Nc3cc([C@@H]4CC[C@H](OC(=O)NC5(C)CCOC5)C4)[nH]n3)c(F)c2CS1(=O)=O (single isomer, unassigned) [Example 349d, cis-3-(3-((4-fluoro-1-methyl-2,2-dioxido-1,3-dihydrobenzo[c]isothiazol-5-yl)amino)-1H-pyrazol-5-yl)cyclopentyl(3-methyltetrahydrofuran-3-yl)carbamate]
10 nM	1010 nM	CC(C)NC(=O)O[C@H]1CC[C@@H](c2cc(Nc3ccc4c(c3F)CN(C3CCCN(C)C3=O)S4(=O)=O)n[nH]2)C1 (relative stereo) [Example 88, cis-3-(3-((4-fluoro-2-(1-methyl-2-oxopiperidin-3-yl)-1,1-dioxido-2,3-dihydrobenzo[d]isothiazol-5-yl)amino)-1H-pyrazol-5-yl)cyclopentyl isopropylcarbamate]
3.9 nM	229 nM	COCC(C)NC(=O)O[C@H]1CC[C@@H](c2cc(Nc3ccc4c(c3F)CS(=O)(=O)N4C)n[nH]2)C1 (relative stereo) [Example 331, cis-3-(3-((4-fluoro-1-methyl-2,2-dioxido-1,3-dihydrobenzo[c]isothiazol-5-yl)amino)-1H-pyrazol-5-yl)cyclopentyl(1-methoxypropan-2-yl)carbamate]
3.5 nM	59 nM	CCCNC(=O)O[C@H]1CC[C@@H](c2cc(Nc3ccc4c(c3F)CS(=O)(=O)N4CC(F)(F)F)n[nH]2)C1 [Example 266b]
2 nM	37 nM	CCCNC(=O)O[C@H]1CC[C@@H](c2cc(Nc3ccc4c(c3F)CS(=O)(=O)N4)n[nH]2)C1 (single isomer, unassigned) [Example 387b]
12 nM	545 nM	CN1Cc2c(ccc(Nc3cc([C@@H]4CC[C@H](OC(=O)NCC(C)(C)O)C4)[nH]n3)c2F)S1(=O)=O (relative stereo) [Example 168, cis-3-(3-((4-fluoro-2-methyl-1,1-dioxido-2,3-dihydrobenzo[d]isothiazol-5-yl)amino)-1H-pyrazol-5-yl)cyclopentyl(2-hydroxy-2-methylpropyl)carbamate]
1.7 nM	44 nM	CC(=O)N1CC(CN2c3ccc(Nc4cc([C@@H]5CC[C@H](OC(=O)NC(C)C)C5)[nH]n4)cc3CS2(=O)=O)C1 (relative stereo) [Example 214, cis-3-(3-((1-((1-acetylazetidin-3-yl)methyl)-2,2-dioxido-1,3-dihydrobenzo[c]isothiazol-5-yl)amino)-1H-pyrazol-5-yl)cyclopentyl isopropylcarbamate]
25 nM	472 nM	CC1(NC(=O)O[C@H]2CC[C@@H](c3cc(Nc4ccc5c(c4F)C(C)(C)NS5(=O)=O)n[nH]3)C2)CC1 (relative stereo) [Example 56, cis-3-(3-((4-fluoro-3,3-dimethyl-1,1-dioxido-2,3-dihydrobenzo[d]isothiazol-5-yl)amino)-1H-pyrazol-5-yl)cyclopentyl(1-methylcyclopropyl)carbamate]
1.9 nM	114 nM	CC1(NC(=O)O[C@H]2CC[C@@H](c3cc(Nc4ccc5c(c4F)CN(C4CC4)S5(=O)=O)n[nH]3)C2)CC1 (single isomer, unassigned) [Example 119b, cis-3-(3-((2-cyclopropyl-4-fluoro-1,1-dioxido-2,3-dihydrobenzo[d]isothiazol-5-yl)amino)-1H-pyrazol-5-yl)cyclopentyl(1-methylcyclopropyl)carbamate]
18 nM	717 nM	CC(C)(C)NC(=O)O[C@@H]1CC[C@H](c2cc(Nc3cc4c(cc3F)NS(=O)(=O)C4)n[nH]2)C1 [Example 404a]
42 nM	666 nM	O=C(NC1COC1)O[C@H]1CC[C@@H](c2cc(Nc3ccc4c(c3F)CNS4(=O)=O)n[nH]2)C1 (relative stereo) [Example 149, cis-3-(3-((4-fluoro-1,1-dioxido-2,3-dihydrobenzo[d]isothiazol-5-yl)amino)-1H-pyrazol-5-yl)cyclopentyl oxetan-3-ylcarbamate]
1.8 nM	57 nM	CC(C)NC(=O)O[C@H]1CC[C@@H](c2cc(Nc3ccc4c(c3)C(C)S(=O)(=O)N4)n[nH]2)C1 (single isomer, unassigned) [Example 384d, cis-3-(3-((3-methyl-2,2-dioxido-1,3-dihydrobenzo[c]isothiazol-5-yl)amino)-1H-pyrazol-5-yl)cyclopentyl isopropylcarbamate]
4.6 nM	214 nM	COCCN1Cc2c(ccc(Nc3cc([C@@H]4CC[C@H](OC(=O)NC(C)C)C4)[nH]n3)c2F)S1(=O)=O (relative stereo) [Example 64, cis-3-(3-((4-fluoro-2-(2-methoxyethyl)-1,1-dioxido-2,3-dihydrobenzo[d]isothiazol-5-yl)amino)-1H-pyrazol-5-yl)cyclopentyl isopropylcarbamate]
887 nM	9960 nM	COc1c(Nc2cc([C@@H]3CC[C@H](OC(=O)NC(C)C)C3)[nH]n2)ccc2c1C(C)(C)NS2(=O)=O (relative stereo) [Example 24, cis-3-(3-((4-methoxy-3,3-dimethyl-1,1-dioxido-2,3-dihydrobenzo[d]isothiazol-5-yl)amino)-1H-pyrazol-5-yl)cyclopentyl isopropylcarbamate]
23 nM	1070 nM	COc1cc2c(cc1Nc1cc([C@@H]3CC[C@H](OC(=O)NC(C)C)C3)[nH]n1)CNS2(=O)=O (relative stereo) [Example 15, cis-3-(3-((6-methoxy-1,1-dioxido-2,3-dihydrobenzo[d]isothiazol-5-yl)amino)-1H-pyrazol-5-yl)cyclopentyl isopropylcarbamate]
2.4 nM	163 nM	CC1(NC(=O)O[C@H]2CC[C@@H](c3cc(Nc4ccc5c(c4F)CNS5(=O)=O)n[nH]3)C2)CCOC1 (mixture of isomers) [Example 162, cis-3-(3-((4-fluoro-1,1-dioxido-2,3-dihydrobenzo[d]isothiazol-5-yl)amino)-1H-pyrazol-5-yl)cyclopentyl(3-methyltetrahydrofuran-3-yl)carbamate]
1.1 nM	10 nM	CC1(NC(=O)O[C@H]2CC[C@@H](c3cc(Nc4ccc5c(c4)CS(=O)(=O)N5)n[nH]3)C2)CCOC1 (relative stereo) [Example 392, cis-3-(3-((2,2-dioxido-1,3-dihydrobenzo[c]isothiazol-5-yl)amino)-1H-pyrazol-5-yl)cyclopentyl(3-methyltetrahydrofuran-3-yl)carbamate]
